Tests used:
[1] = system: Pseudomonas PAO1 strain (ATCC 15692); assay: Amount of biofilm formed (crystal violet, OD570), 96-well microplate culture; assay type: cell-based; conditions: for inhibition at 22 ppm: final concentration 22 ppm; for inhibition at 44 ppm: final concentration 44 ppm; for inhibition at 5 ppm: final concentration 5 ppm; for inhibition at 18 ppm: final concentration 18 ppm; for inhibition at 37 ppm: final concentration 37 ppm
Protocol: Pseudomonas PAO1 strain (ATCC 15692) was subjected to stationary culture performed in LB culture medium (Lysogeny Broth; manufactured by Becton Dickinson) at 37° C. for 24 hours. The turbidity (OD600) of the culture solution was measured. The culture solution was diluted with Mueller Hinton Broth (BBL made) to prepare a suspension (15 mL) having a turbidity (OD600) of 1/10^6. […]
(§1) Growth inhibition rates relative to the control (ethanol alone) were calculated based on OD600 values measured and in accordance with the following expression. In addition, biofilm (BF) formation inhibition rates relative to the control (ethanol alone) were calculated based on OD570 values and in accordance with the following expression:
BF inhibition (%)={1−(compound addition group OD570/control group OD570)}×100
(§2) As a control, an ethanol solvent alone was used (EtOH control). The concentrations of test compounds in the ethanol solution were as follows: test compound 1: 20 mM, test compounds 2 to 7: 100 mM. To each of the wells of a 96-well microplate (351172; manufactured by Japan Becton Dickinson), 6 μL of DMSO (Tokyo Kasei) and an ethanol solution of each test compound (1 to 8 μL) were added and then the microplates were allowed to stand still at room temperature for 5 hours to evaporate ethanol. A suspension solution of a Pseudomonas microbe prepared in the same procedure as in Test Example 1, 1) was added in an amount of 145 μL per well and culture was initiated.
(§3) After the 96-well microplate was subjected to stationary culture at 30° C. for 24 hours, turbidity (OD600) was measured to check growth. Subsequently, individual wells were stained with 0.1% crystal violet and thoroughly washed twice with physiological saline. To each well, 200 μL of ethanol was added and the absorbance (OD570) was measured to obtain the amount of the biofilm formed. The growth inhibition rate and biofilm (BF) formation inhibition rate were calculated based on OD600 and OD570 values measured and in accordance with the expressions used in Test Example 2.

[2] = system: Pseudomonas PAO1 strain (ATCC 15692); assay: Growth of test microbe (turbidity OD600), 96-well microplate culture; assay type: cell-based; conditions: for inhibition at 22 ppm: final concentration 22 ppm; for inhibition at 44 ppm: final concentration 44 ppm; for inhibition at 5 ppm: final concentration 5 ppm; for inhibition at 18 ppm: final concentration 18 ppm; for inhibition at 37 ppm: final concentration 37 ppm
Protocol: Pseudomonas PAO1 strain (ATCC 15692) was subjected to stationary culture performed in LB culture medium (Lysogeny Broth; manufactured by Becton Dickinson) at 37° C. for 24 hours. The turbidity (OD600) of the culture solution was measured. The culture solution was diluted with Mueller Hinton Broth (BBL made) to prepare a suspension (15 mL) having a turbidity (OD600) of 1/10^6.
To each of the wells of a 96-well microplate (351172; manufactured by Japan Becton Dickinson), 6 μL of DMSO (Tokyo Chemical Industry Co. Ltd) and an ethanol solution (1 μL, 3 μL or 5 μL) of a test compound were added. After that, the microplate was allowed to stand still at room temperature for 5 hours to evaporate ethanol. The suspension of Pseudomonas microbe prepared in the above step 1) was added in an amount of 145 μL per well and culture was initiated. As the test compound, 2-methylhydroquinone (Sigma Aldrich) and p-toluquinone (Tokyo Kasei) were used. As a reference compound, sodium hypochlorite (manufactured by Wako Pure Chemical Industries Ltd.) was used. As a control, an ethanol solvent (EtOH control) alone was used. The concentration of the test compound in the ethanol solution is 1,000 ppm or 10,000 ppm and the final concentration of the test compound in the culture solution was about from 7 to 333 ppm.
After the 96-well microplate was subjected to stationary culture performed at 30° C. for 24 hours, turbidity (OD600) was measured to check growth. Subsequently, individual wells were stained with 0.1% crystal violet and thoroughly washed twice with physiological saline. To each well, 200 μL of ethanol was added and the absorbance (OD570) was measured to obtain the amount of the biofilm formed.
Compounds listed in Table 3 were each added to a test microbe and culture was conducted by the same procedure as in Test Example 1 and the amount of growth (OD600) and the amount of biofilm formed (OD570) were measured. For compounds a, b, c, f, h, i, J and k, 20 mM ethanol solutions were prepared; whereas for compounds d, e, g, 5 mM ethanol solutions were prepared. The solutions were each added to a 96-well microplate in an amount of 1 to 8 μL and evaluation was made. The final concentrations of the individual compounds are described in Table 3.
as §1
Growth inhibition (%)=(1−(compound addition group OD600/control group OD600))×100
as §2, §3

[3] = Pseudomonas, read-out: BF inhibition (%)
[4] = Pseudomonas, read-out: Growth inhibition (%)
[5] = Test Example 3, final concentration 83 ppm
[6] = Test Example 3, final concentration 165 ppm
[7] = Test Example 3, final concentration 331 ppm
[8] = Test Example 3, final concentration 496 ppm
[9] = Test Example 3, final concentration 579 ppm
[10] = Test Example 3, final concentration 661 ppm

CCCCCc1cc(O)cc(O)c1 [Compound 3, 5-Pentylresorcinol]
inhibition at 120 ppm [1, 3]: 0.9% | inhibition at 240 ppm [1, 3]: < 0% | inhibition at 480 ppm [1, 3]: 50.6% | inhibition at 720 ppm [1, 3]: 42.3% | inhibition at 840 ppm [1, 3]: 85% | inhibition at 960 ppm [1, 3]: 86.1% | inhibition at 120 ppm [2, 4]: 7.7% | inhibition at 240 ppm [2, 4]: < 0% | inhibition at 480 ppm [2, 4]: < 0% | inhibition at 720 ppm [2, 4]: < 0% | inhibition at 840 ppm [2, 4]: 17% | inhibition at 960 ppm [2, 4]: 4.9%

CC(C)(C)C1=CC(=O)C=CC1=O [k, tert-Butylbenzoquinone]
inhibition at 22 ppm [1, 3]: < 0% | inhibition at 44 ppm [1, 3]: < 0% | inhibition at 88 ppm ([1]; Pseudomonas, final concentration 88 ppm, read-out: BF inhibition (%)): < 0% | inhibition at 131 ppm ([1]; Pseudomonas, final concentration 131 ppm, read-out: BF inhibition (%)): < 0% | inhibition at 154 ppm ([1]; Pseudomonas, final concentration 154 ppm, read-out: BF inhibition (%)): 26.2% | inhibition at 175 ppm ([1]; Pseudomonas, final concentration 175 ppm, read-out: BF inhibition (%)): 30.3% | inhibition at 22 ppm ([2]; Pseudomonas): 8.9% | inhibition at 44 ppm ([2]; Pseudomonas): < 0% | inhibition at 88 ppm ([2]; Pseudomonas, final concentration 88 ppm): < 0% | inhibition at 131 ppm ([2]; Pseudomonas, final concentration 131 ppm): < 0% | inhibition at 154 ppm ([2]; Pseudomonas, final concentration 154 ppm): < 0% | inhibition at 175 ppm ([2]; Pseudomonas, final concentration 175 ppm): < 0%

Cc1c(O)cccc1O [Compound 6, 2-Methylresorcinol]
inhibition at 83 ppm ([1]; Pseudomonas, Test Example 3, final concentration 83 ppm, read-out: BF inhibition (%)): < 0% | inhibition at 165 ppm ([1]; Pseudomonas, Test Example 3, final concentration 165 ppm, read-out: BF inhibition (%)): < 0% | inhibition at 331 ppm ([1]; Pseudomonas, Test Example 3, final concentration 331 ppm, read-out: BF inhibition (%)): < 0% | inhibition at 496 ppm ([1]; Pseudomonas, Test Example 3, final concentration 496 ppm, read-out: BF inhibition (%)): 53% | inhibition at 579 ppm ([1]; Pseudomonas, Test Example 3, final concentration 579 ppm, read-out: BF inhibition (%)): 52.2% | inhibition at 661 ppm ([1]; Pseudomonas, Test Example 3, final concentration 661 ppm, read-out: BF inhibition (%)): 56.3% | inhibition at 83 ppm ([2]; Pseudomonas, Test Example 3, final concentration 83 ppm): < 0% | inhibition at 165 ppm ([2]; Pseudomonas, Test Example 3, final concentration 165 ppm): 5.2% | inhibition at 331 ppm ([2]; Pseudomonas, Test Example 3, final concentration 331 ppm): < 0% | inhibition at 496 ppm ([2]; Pseudomonas, Test Example 3, final concentration 496 ppm): 12.3% | inhibition at 579 ppm ([2]; Pseudomonas, Test Example 3, final concentration 579 ppm): 20% | inhibition at 661 ppm ([2]; Pseudomonas, Test Example 3, final concentration 661 ppm): 13.3%

CCCCc1cc(O)ccc1O [j, 2-Butylhydroquinone]
inhibition at 22 ppm [1, 3]: 16.3% | inhibition at 44 ppm [1, 3]: 14.1% | inhibition at 89 ppm ([1]; Pseudomonas, final concentration 89 ppm, read-out: BF inhibition (%)): 42.1% | inhibition at 133 ppm ([1]; Pseudomonas, final concentration 133 ppm, read-out: BF inhibition (%)): 57.3% | inhibition at 155 ppm ([1]; Pseudomonas, final concentration 155 ppm, read-out: BF inhibition (%)): 63.9% | inhibition at 177 ppm ([1]; Pseudomonas, final concentration 177 ppm, read-out: BF inhibition (%)): 75.4% | inhibition at 22 ppm ([2]; Pseudomonas): 8.5% | inhibition at 44 ppm ([2]; Pseudomonas): < 0% | inhibition at 89 ppm ([2]; Pseudomonas, final concentration 89 ppm): 0.8% | inhibition at 133 ppm ([2]; Pseudomonas, final concentration 133 ppm): < 0% | inhibition at 155 ppm ([2]; Pseudomonas, final concentration 155 ppm): < 0% | inhibition at 177 ppm ([2]; Pseudomonas, final concentration 177 ppm): < 0%

Cc1cc(O)c(C)c(C)c1O [g, 2,3,5-Trimethylhydroquinone]
inhibition at 5 ppm [1, 3]: 45.5% | inhibition at 10 ppm ([1]; Pseudomonas, final concentration 10 ppm, read-out: BF inhibition (%)): 42.2% | inhibition at 20 ppm ([1]; Pseudomonas, final concentration 20 ppm, read-out: BF inhibition (%)): 48% | inhibition at 30 ppm ([1]; Pseudomonas, final concentration 30 ppm, read-out: BF inhibition (%)): 54.7% | inhibition at 35 ppm ([1]; Pseudomonas, final concentration 35 ppm, read-out: BF inhibition (%)): 93.9% | inhibition at 41 ppm ([1]; Pseudomonas, final concentration 41 ppm, read-out: BF inhibition (%)): 90.4% | inhibition at 5 ppm ([2]; Pseudomonas): < 0% | inhibition at 10 ppm ([2]; Pseudomonas, final concentration 10 ppm): < 0% | inhibition at 20 ppm ([2]; Pseudomonas, final concentration 20 ppm): 0.1% | inhibition at 30 ppm ([2]; Pseudomonas, final concentration 30 ppm): 65.8% | inhibition at 35 ppm ([2]; Pseudomonas, final concentration 35 ppm): 67.5% | inhibition at 41 ppm ([2]; Pseudomonas, final concentration 41 ppm): 68.5%

CCc1cc(O)ccc1O [f, Ethylquinol]
inhibition at 18 ppm [1, 3]: 18.6% | inhibition at 37 ppm [1, 3]: 31.1% | inhibition at 74 ppm ([1]; Pseudomonas, final concentration 74 ppm, read-out: BF inhibition (%)): 40.6% | inhibition at 110 ppm ([1]; Pseudomonas, final concentration 110 ppm, read-out: BF inhibition (%)): 50.8% | inhibition at 129 ppm ([1]; Pseudomonas, final concentration 129 ppm, read-out: BF inhibition (%)): 75.4% | inhibition at 147 ppm ([1]; Pseudomonas, final concentration 147 ppm, read-out: BF inhibition (%)): 78.9% | inhibition at 18 ppm ([2]; Pseudomonas): 2.1% | inhibition at 37 ppm ([2]; Pseudomonas): 5.5% | inhibition at 74 ppm ([2]; Pseudomonas, final concentration 74 ppm): < 0% | inhibition at 110 ppm ([2]; Pseudomonas, final concentration 110 ppm): < 0% | inhibition at 129 ppm ([2]; Pseudomonas, final concentration 129 ppm): < 0% | inhibition at 147 ppm ([2]; Pseudomonas, final concentration 147 ppm): < 0%

Cc1cc(O)cc(C)c1O [d, 2,6-Dimethylhydroquinone]
inhibition at 5 ppm [1, 3]: 12.7% | inhibition at 9 ppm ([1]; Pseudomonas, final concentration 9 ppm, read-out: BF inhibition (%)): 11.2% | inhibition at 18 ppm [1, 3]: < 0% | inhibition at 27 ppm ([1]; Pseudomonas, final concentration 27 ppm, read-out: BF inhibition (%)): 6.3% | inhibition at 32 ppm ([1]; Pseudomonas, final concentration 32 ppm, read-out: BF inhibition (%)): 17.8% | inhibition at 37 ppm [1, 3]: 31.9% | inhibition at 5 ppm ([2]; Pseudomonas): < 0% | inhibition at 9 ppm ([2]; Pseudomonas, final concentration 9 ppm): 6.3% | inhibition at 18 ppm ([2]; Pseudomonas): 0.8% | inhibition at 27 ppm ([2]; Pseudomonas, final concentration 27 ppm): 6.6% | inhibition at 32 ppm ([2]; Pseudomonas, final concentration 32 ppm): 14% | inhibition at 37 ppm ([2]; Pseudomonas): 5.4%

CC1=CC(=O)C=C(C)C1=O [i, 3,5-Dimethylbenzoquinone]
inhibition at 18 ppm [1, 3]: 17.2% | inhibition at 36 ppm ([1]; Pseudomonas, final concentration 36 ppm, read-out: BF inhibition (%)): 26.2% | inhibition at 72 ppm ([1]; Pseudomonas, final concentration 72 ppm, read-out: BF inhibition (%)): 29.4% | inhibition at 109 ppm ([1]; Pseudomonas, final concentration 109 ppm, read-out: BF inhibition (%)): 54% | inhibition at 127 ppm ([1]; Pseudomonas, final concentration 127 ppm, read-out: BF inhibition (%)): 60.9% | inhibition at 145 ppm ([1]; Pseudomonas, final concentration 145 ppm, read-out: BF inhibition (%)): 55.8% | inhibition at 18 ppm ([2]; Pseudomonas): 5.3% | inhibition at 36 ppm ([2]; Pseudomonas, final concentration 36 ppm): < 0% | inhibition at 72 ppm ([2]; Pseudomonas, final concentration 72 ppm): 29.7% | inhibition at 109 ppm ([2]; Pseudomonas, final concentration 109 ppm): 33.5% | inhibition at 127 ppm ([2]; Pseudomonas, final concentration 127 ppm): 33.7% | inhibition at 145 ppm ([2]; Pseudomonas, final concentration 145 ppm): 37.7%

Cc1cc(O)cc(O)c1 [Compound 2, 5-Methylresocinol]
BF inhibition (%) [1, 5]: — (No growth inhibition or no BF inhibition) | BF inhibition (%) [1, 6]: — (No growth inhibition or no BF inhibition) | BF inhibition (%) [1, 7]: — (No growth inhibition or no BF inhibition) | BF inhibition (%) [1, 8]: 57.5% | BF inhibition (%) [1, 9]: 57.7% | BF inhibition (%) [1, 10]: 70.2% | Growth inhibition (%) [2, 5]: — (No growth inhibition or no BF inhibition) | Growth inhibition (%) [2, 6]: 10.4% | Growth inhibition (%) [2, 7]: — (No growth inhibition or no BF inhibition) | Growth inhibition (%) [2, 8]: — (No growth inhibition or no BF inhibition) | Growth inhibition (%) [2, 9]: 17.6% | Growth inhibition (%) [2, 10]: — (No growth inhibition or no BF inhibition)

— patent publication US20190124918A1, “BIOFILM FORMATION INHIBITOR AND BIOFILM FORMATION INHIBITING COMPOSITION” (KAO CORPORATION, priority 2016, published 2019)
